# Measurements published in the supplement of paper PMC10307832.
# Tests used:
# Assay in all cases: relative viability (nuclei count vs DMSO), 5 days (fraction); higher = more cells survive
# BAY61-3606 + Olaparib = compound: COC1=C(C=C(C=C1)C2=CC3=NC=CN3C(=N2)NC4=C(C=CC=N4)C(=O)N)OC [BAY61-3606] + O=C(c1cc(Cc2n[nH]c(=O)c3ccccc23)ccc1F)N1CCN(C(=O)C2CC2)CC1 [Olaparib] (partner 8 µM)
# Procedure, shortened: (§1)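 After 5 days of treatment, lung cancer cells in 1536-well plates were fixed and stained in a single step (final 0.05% Triton X-100, 1% formaldehyde, 1 ug/ml Hoechst) and their nuclei counted on 4× images. Treatment had been applied by pin tool the day after seeding as one drug alone or as a fixed anchor-drug dose with five library-drug doses (not always all listed) in √10 steps. Relative viability is the nuclei count of treated wells divided by that of vehicle wells, and values are medians of duplicate plates.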
# Doxorubicin + Pictilisib = compound: COc1cccc2c1C(=O)c1c(O)c3c(c(O)c1C2=O)C[C@@](O)(C(=O)CO)C[C@@H]3O[C@H]1C[C@H](N)[C@H](O)[C@H](C)O1 [Doxorubicin] + CS(=O)(=O)N1CCN(Cc2cc3nc(-c4cccc5[nH]ncc45)nc(N4CCOCC4)c3s2)CC1 [Pictilisib] (partner 1 µM)
# Procedure, shortened: as §1
# Doxorubicin + Vorinostat = compound: COc1cccc2c1C(=O)c1c(O)c3c(c(O)c1C2=O)C[C@@](O)(C(=O)CO)C[C@@H]3O[C@H]1C[C@H](N)[C@H](O)[C@H](C)O1 [Doxorubicin] + O=C(CCCCCCC(=O)Nc1ccccc1)NO [Vorinostat] (partner 1 µM)
# Procedure, shortened: as §1
# BAY61-3606 + Pemetrexed = compound: COC1=C(C=C(C=C1)C2=CC3=NC=CN3C(=N2)NC4=C(C=CC=N4)C(=O)N)OC [BAY61-3606] + Nc1nc2[nH]cc(CCc3ccc(C(=O)N[C@@H](CCC(=O)O)C(=O)O)cc3)c2c(=O)[nH]1 [Pemetrexed] (partner 0.2 µM)
# Procedure, shortened: as §1
Cell Line,relative viability (BAY61-3606 + Olaparib; first compound 0.02 µM),relative viability (BAY61-3606 + Olaparib; first compound 0.06325 µM),relative viability (BAY61-3606 + Olaparib; first compound 0.2 µM),relative viability (BAY61-3606 + Olaparib; first compound 0.6325 µM),relative viability (BAY61-3606 + Olaparib; first compound 2 µM),relative viability (Doxorubicin + Pictilisib; first compound 0.001 µM),relative viability (Doxorubicin + Pictilisib; first compound 0.003162 µM),relative viability (Doxorubicin + Pictilisib; first compound 0.01 µM),relative viability (Doxorubicin + Pictilisib; first compound 0.03162 µM),relative viability (Doxorubicin + Pictilisib; first compound 0.1 µM),relative viability (Doxorubicin + Vorinostat; first compound 0.001 µM),relative viability (Doxorubicin + Vorinostat; first compound 0.003162 µM),relative viability (Doxorubicin + Vorinostat; first compound 0.01 µM),relative viability (Doxorubicin + Vorinostat; first compound 0.03162 µM),relative viability (Doxorubicin + Vorinostat; first compound 0.1 µM),relative viability (BAY61-3606 + Pemetrexed; first compound 0.02 µM),relative viability (BAY61-3606 + Pemetrexed; first compound 0.06325 µM),relative viability (BAY61-3606 + Pemetrexed; first compound 0.2 µM),relative viability (BAY61-3606 + Pemetrexed; first compound 0.6325 µM),relative viability (BAY61-3606 + Pemetrexed; first compound 2 µM)
LU99A,0.261,0.253,0.241,0.246,0.243,0.349,0.323,0.318,0.272,0.314,0.518,0.474,0.442,0.409,0.519,0.175,0.149,0.193,0.171,0.166
LXF-289,1.05,1.1,0.96,1.04,0.963,0.698,0.772,0.716,0.783,0.745,0.703,0.787,0.745,0.805,0.744,0.94,0.939,0.901,0.946,0.907
NCI-H23,0.327,0.304,0.289,0.305,0.288,–,0.475,0.462,0.375,0.401,0.551,0.808,0.654,0.464,0.363,0.64,0.689,0.547,0.708,0.429
NCI-H322M,0.779,0.822,0.75,0.749,0.724,0.589,0.448,0.546,0.561,0.564,1.01,0.836,0.85,0.769,0.57,0.598,0.627,0.634,0.637,0.538
NCI-H358,0.654,0.601,0.751,0.573,0.449,0.441,0.349,0.273,0.175,0.181,0.838,0.679,0.407,0.138,0.101,0.196,0.184,0.226,0.163,0.153
NCI-H441,0.561,0.629,0.511,0.473,0.32,0.434,0.521,0.404,0.292,0.323,0.87,0.962,0.75,0.279,0.372,0.263,0.236,0.271,0.238,0.242
NCI-H460,0.501,0.464,0.393,0.444,0.457,0.246,0.393,0.392,0.309,0.249,0.654,0.639,0.492,0.063,0.0329,0.0615,0.0666,0.0787,0.0676,0.0667
NCI-H520,0.359,0.325,0.383,0.391,0.274,0.264,0.326,0.228,0.239,0.191,0.757,0.733,0.788,0.596,0.564,0.75,0.782,0.768,0.684,0.467
NCI-H596,0.74,0.75,0.722,0.925,0.544,0.353,0.436,0.41,0.44,0.379,0.533,0.594,0.641,0.605,0.632,0.454,0.511,0.534,0.555,0.486
NCI-H647,0.729,0.743,0.574,0.432,0.237,–,0.38,0.46,0.279,0.1,0.546,0.671,0.387,0.132,0.189,0.146,0.156,0.184,0.145,0.131
NCI-H650,0.365,0.371,0.382,0.395,0.32,0.989,0.886,0.867,0.734,0.711,0.553,0.505,0.422,0.355,0.432,0.958,0.904,0.892,1.01,0.797
NCI-H661,0.737,0.75,0.679,0.762,0.691,0.399,0.412,0.378,0.452,0.324,0.737,0.82,0.695,0.577,0.495,0.963,1.01,0.84,0.931,0.703
NCI-H838,0.802,0.847,0.751,0.729,0.571,0.394,0.424,0.387,0.227,0.182,0.783,0.737,0.714,0.544,0.435,0.257,0.256,0.234,0.254,0.211
NCI-H1355,0.778,0.713,0.708,0.762,0.641,0.179,0.565,0.465,0.412,0.44,0.604,0.602,0.631,0.599,0.625,1.1,1.03,0.977,1.11,0.924
NCI-H1395,0.485,0.426,0.467,0.492,0.438,0.682,0.623,0.648,0.628,0.421,0.551,0.688,0.825,0.572,0.493,1.04,0.659,0.72,0.899,0.73
NCI-H1437,0.634,0.687,0.607,0.621,0.555,0.541,0.443,0.363,0.122,0.143,0.784,0.891,0.812,0.627,0.585,0.333,0.342,0.33,0.31,0.346

Cell Line,relative viability (BAY61-3606 + Olaparib; first compound 0.02 µM),relative viability (BAY61-3606 + Olaparib; first compound 0.06325 µM),relative viability (BAY61-3606 + Olaparib; first compound 0.2 µM),relative viability (BAY61-3606 + Olaparib; first compound 0.6325 µM),relative viability (BAY61-3606 + Olaparib; first compound 2 µM),relative viability (Doxorubicin + Pictilisib; first compound 0.001 µM),relative viability (Doxorubicin + Pictilisib; first compound 0.003162 µM),relative viability (Doxorubicin + Pictilisib; first compound 0.01 µM),relative viability (Doxorubicin + Pictilisib; first compound 0.03162 µM),relative viability (Doxorubicin + Pictilisib; first compound 0.1 µM),relative viability (Doxorubicin + Vorinostat; first compound 0.001 µM),relative viability (Doxorubicin + Vorinostat; first compound 0.003162 µM),relative viability (Doxorubicin + Vorinostat; first compound 0.01 µM),relative viability (Doxorubicin + Vorinostat; first compound 0.03162 µM),relative viability (Doxorubicin + Vorinostat; first compound 0.1 µM),relative viability (BAY61-3606 + Pemetrexed; first compound 0.02 µM),relative viability (BAY61-3606 + Pemetrexed; first compound 0.06325 µM),relative viability (BAY61-3606 + Pemetrexed; first compound 0.2 µM),relative viability (BAY61-3606 + Pemetrexed; first compound 0.6325 µM),relative viability (BAY61-3606 + Pemetrexed; first compound 2 µM)
NCI-H1650,0.86,0.924,0.768,0.806,0.674,0.29,0.371,0.241,0.159,0.119,0.52,0.625,0.417,0.181,0.16,0.351,0.356,0.42,0.46,0.331
NCI-H1651,0.195,0.198,0.184,0.182,0.145,0.608,0.437,0.412,0.138,0.107,0.572,0.591,0.569,0.533,0.495,0.608,0.544,0.492,0.537,0.531
NCI-H1666,0.767,0.827,0.748,0.754,0.724,0.376,0.37,0.309,0.237,0.271,–,1.1,0.972,0.808,0.806,0.84,0.911,0.81,0.973,0.909
NCI-H1734,0.604,0.555,0.561,0.541,0.378,0.464,0.498,0.389,0.321,0.267,0.737,0.815,0.747,0.558,0.536,0.401,0.409,0.383,0.358,0.354
NCI-H1755,0.908,0.883,0.852,0.911,0.789,0.342,0.508,0.451,0.444,0.44,0.78,0.749,0.716,0.788,0.827,0.488,0.4,0.411,0.419,0.562
NCI-H1793,0.988,0.814,1,1.03,0.718,–,0.365,0.417,0.309,0.301,–,0.867,0.728,0.659,0.731,0.983,0.88,0.896,1.13,1.08
NCI-H1915,0.253,0.236,0.254,0.247,0.181,0.854,1.01,0.954,1.06,1.03,0.521,0.57,0.532,0.5,0.527,0.546,0.544,0.488,0.447,0.453
NCI-H1944,0.439,0.38,0.397,0.434,0.258,0.327,0.346,0.381,0.345,0.347,0.554,0.632,0.541,0.416,0.497,0.677,0.565,0.644,0.583,0.518
NCI-H1975,0.858,0.798,0.733,0.707,0.516,0.292,0.3,0.237,0.177,0.198,0.731,0.735,0.678,0.679,0.531,0.288,0.289,0.308,0.269,0.247
NCI-H1993,1.11,1.04,0.984,1.13,0.82,0.78,0.817,0.748,0.814,0.656,0.0284,0.67,0.851,0.509,0.462,0.642,0.564,0.541,0.57,0.461
NCI-H2009,0.714,0.639,0.864,0.713,0.592,0.712,0.777,0.719,0.535,0.282,0.682,0.77,0.738,0.534,0.329,1,1.01,1.02,0.918,0.91
NCI-H2023,0.515,0.623,0.481,0.496,0.257,0.169,0.248,0.192,0.104,0.0731,0.463,0.657,0.272,0.0749,0.109,0.263,0.257,0.212,0.246,0.157
NCI-H2085,0.863,0.868,0.726,0.843,0.698,0.509,0.537,0.512,0.459,0.519,0.725,0.779,0.807,0.82,0.618,0.984,0.946,0.861,1.08,0.898
NCI-H2087,0.547,0.682,0.489,0.54,0.448,0.703,0.886,0.841,0.495,0.454,0.327,1.08,0.746,0.75,0.677,0.578,0.685,0.682,0.625,0.588
NCI-H2126,0.92,0.985,0.865,0.909,0.833,0.494,0.523,0.501,0.49,0.517,0.725,0.839,0.8,0.751,0.799,0.708,0.654,0.639,0.713,0.58
